PubChem BioAssay (NCI)
Where “and” joins values, the source holds several entries; their conditions need not be identical. Identical values can stand only once.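 Where inhibition never reached the appropriate level, the endpoint shown equals the highest concentration tested. Otherwise, values were interpolated linearly from a five-concentration, 48-hour dose response in 96-well plates. Abbreviation: GI50, concentration required for 50% inhibition of growth. TGI is the concentration that stops growth completely.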

How the values were obtained:
Experiment in all cases: NCI-60 cell line screen, 48 h
ACHN renal = test system: ACHN renal
KM12 colon = test system: KM12 colon
MALME-3M melanoma = test system: MALME-3M melanoma
NCI-H226 lung = test system: NCI-H226 lung
OVCAR-3 ovarian = test system: OVCAR-3 ovarian
SF-295 CNS = test system: SF-295 CNS
T-47D breast = test system: T-47D breast
U251 CNS = test system: U251 CNS
SK-OV-3 ovarian = test system: SK-OV-3 ovarian
TK-10 renal = test system: TK-10 renal

| Compound | TGI (ACHN renal) [µM] | TGI (KM12 colon) | TGI (MALME-3M melanoma) | TGI (NCI-H226 lung) [µM] | TGI (OVCAR-3 ovarian) | TGI (SF-295 CNS) | TGI (T-47D breast) | TGI (U251 CNS) | TGI (SK-OV-3 ovarian) | TGI (TK-10 renal) | GI50 (ACHN renal) [µM] | GI50 (KM12 colon) [µM] | GI50 (NCI-H226 lung) [µM] | GI50 (OVCAR-3 ovarian) [µM] | GI50 (SF-295 CNS) [µM] | GI50 (SK-OV-3 ovarian) [µM] | GI50 (T-47D breast) [µM] | GI50 (TK-10 renal) [µM] | GI50 (U251 CNS) [µM] | GI50 (MALME-3M melanoma) [µM] |
| --- | --- | --- | --- | --- | --- | --- | --- | --- | --- | --- | --- | --- | --- | --- | --- | --- | --- | --- | --- | --- |
| CS(=O)(=O)Nc1ccc2c(c1)oc(=O)c1ccccc12 | > 100 | > 100 µM | > 100 µM | > 100 | > 100 µM | > 100 µM | > 100 µM | > 100 µM | – | – | – | – | – | – | – | – | – | – | – | – |
| Cc1ccc(Cc2c(=O)[nH]nc3ccccc23)cc1 | > 100 | > 100 µM | > 100 µM | > 100 | > 100 µM | > 100 µM | – | – | > 100 µM | > 100 µM | – | – | – | – | – | – | – | – | – | – |
| Cc1ccc(S(=O)(=O)N(CC(=O)O)c2ccccc2)cc1 | > 100 | > 100 µM | > 100 µM | – | > 100 µM | > 100 µM | – | > 100 µM | > 100 µM | > 100 µM | – | – | – | – | – | – | – | – | – | – |
| CC(C)c1ccccc1NC(=O)CCc1n[nH]c(=S)o1 | > 100 | > 100 µM | > 100 µM | > 100 | > 100 µM | > 100 µM | – | > 100 µM | > 100 µM | > 100 µM | – | – | – | – | – | – | – | – | – | – |
| CN(C)c1nc2ccccc2[nH]1 | > 100 | > 100 µM | > 100 µM | – | > 100 µM | > 100 µM | – | > 100 µM | > 100 µM | > 100 µM | – | – | – | – | – | – | – | – | – | – |
| Cn1c2c(c3ccccc31)C1CCCCCCC1C1C(=O)OC(=O)C21 (configuration not stated) | > 100 | > 100 µM | 69 µM | > 100 | 47.8 µM | > 100 µM | – | > 100 µM | > 100 µM | > 100 µM | – | – | – | – | – | – | – | – | – | – |
| CCOc1ccccc1C=C1c2ccccc2C(=O)c2ccccc21 | > 100 | > 100 µM | > 100 µM | – | 10.5 µM | > 100 µM | – | > 100 µM | 8.67 µM | 45.6 µM | – | – | – | – | – | – | – | – | – | – |
| CC1=C(C(=O)Nc2ccccc2)C(c2ccccc2)C(C(=O)Nc2ccccc2)=C(C)N1 | > 100 | > 100 µM | > 100 µM | > 100 | > 100 µM | > 100 µM | – | > 100 µM | > 100 µM | > 100 µM | – | – | – | – | – | – | – | – | – | – |
| COc1cc(C2CC(c3cccc(Br)c3)=NN2C(C)=O)cc(OC)c1OC (configuration not stated) | > 84.4 | 18 µM | – | > 58.5 | 0.61 µM | 16.3 µM | 29.7 µM | 53.4 µM | 47.2 µM | 72.2 µM | 0.71 | 0.247 | 11.5 | 0.158 | 0.238 | 0.379 | 0.372 | 16.5 | 0.454 | – |
| CN(C)c1ccc(C(C=C2c3ccccc3Sc3ccccc32)=C(C#N)C#N)cc1 | > 100 | > 100 µM | > 100 µM | – | > 100 µM | > 100 µM | – | > 100 µM | > 100 µM | > 100 µM | – | – | – | – | – | – | – | – | – | – |
| CC(C)c1ccc2c(c1)CC[C@@H]1[C@@](C)(C(=O)O)CCC[C@]21C | 23.5 | 19.5 µM | – | – | 13.8 µM | 17.1 µM | 7.58 µM | 18.3 µM | 21.4 µM | – | 11.4 | 5.44 | – | 1.8 | 3.74 | 4.49 | 2.39 | – | 4.54 | – |
| CN1CCN(CCOc2ccc(-c3cnc4c(-c5ccccc5F)cnn4c3)cc2)CC1 | 2.96 | 2.12 µM | 2.95 µM | – | 4.02 µM | 3.2 µM | 3.93 µM | – | – | 3.9 µM | 1.61 | 0.647 | – | 1.81 | 1.76 | – | 1.38 | 2.09 | – | 1.56 |
| O=S1(=O)C[C@H](O)[C@H](O)CS1 | > 100 | > 100 µM | > 100 µM | > 100 | > 100 µM | > 100 µM | – | > 100 µM | > 100 µM | > 100 µM | – | – | – | – | – | – | – | – | – | – |
| Cc1nc2c(-c3cnc(N)nc3)nc(N3CCOCC3)nc2n1C(C)C | > 100 | > 10 µM and 21.8 µM | 0.46 µM and 0.225 µM | – | 1.64 µM and 1.92 µM | 0.888 µM and 0.406 µM | 0.251 µM and 0.102 µM | > 10 µM and 37.7 µM | 0.57 µM and 0.226 µM | 0.6 µM and 0.505 µM | – | – | – | – | – | – | – | – | – | – |
| Cc1ccc(NC(=O)C(=O)C(C(=O)c2ccc3ccccc3c2)C2OC(=O)c3ccccc32)cc1C (configuration not stated) | > 100 | 47.1 µM | 57.8 µM | 11 | 48.6 µM | – | – | 33.2 µM | > 100 µM | 94.6 µM | – | – | – | – | – | – | – | – | – | – |
| C=C1C(=O)O[C@@H]2C[C@@H]1CC/C(C)=C/CC/C(C)=C/CC[C@@]2(C)O | 28.1 | 13.2 µM | – | 22.2 | 18.7 µM | 32.2 µM | > 100 µM | 43.6 µM | > 100 µM | – | 13 | 3.31 | 4.54 | 5.59 | 16.6 | 46.6 | 34.2 | – | 18.4 | – |
| COc1ccc(C(=O)C(c2ccc(OC)cc2)C2(O)C(=O)Nc3ccc([N+](=O)[O-])cc32)cc1 (configuration not stated) | > 100 | > 100 µM | > 100 µM | > 100 | > 100 µM | > 100 µM | – | > 100 µM | > 100 µM | > 100 µM | – | – | – | – | – | – | – | – | – | – |
| CCCCCCNC(=O)c1cc(NCc2cc(O)ccc2O)ccc1O | 15.7 | 29 µM | 8.29 µM | – | 13 µM | 49.2 µM | 5 µM | 28.5 µM | > 100 µM | 23.1 µM | 4.02 | 11.5 | – | 2.76 | 19.4 | 25.8 | 1.92 | 10.7 | 12.1 | 2.74 |
| Cc1cc(CC(O)c2ccc(Cl)c(Cl)c2)nc(=O)[nH]1 (configuration not stated) | > 100 | > 100 µM | > 100 µM | 92 | > 100 µM | 90 µM | – | > 100 µM | > 100 µM | > 100 µM | – | – | – | – | – | – | – | – | – | – |
| COC(=O)C1=C(O)c2cc(OC)c(OC)cc2C(c2ccc(OC)c(OC)c2)C1 (configuration not stated) | > 100 | > 100 µM | > 100 µM | > 100 | > 100 µM | > 100 µM | – | > 100 µM | > 100 µM | > 100 µM | – | – | – | – | – | – | – | – | – | – |
| COc1cnc2c(c1)C(=O)c1c-2n(CCCNC(C)C)c(=O)c2cc(Cl)ccc12 | – | 2.45 µM | 3.07 µM | 30.1 | 3.02 µM | 1.43 µM | 2.55 µM | 1.53 µM | – | – | – | 1.09 | 1.58 | 1.39 | 0.0523 | – | 0.278 | – | 0.0654 | 1.5 |
